Results reported in patent US20260306524A1, “Guanidinylated Amphiphilic Tobramycin Derivates and B-Lactam/B-Lactamase Inhibitor Combinations for Treatment of Pseudomonas Aeruginosa Infections” (University of Manitoba, priority 2023, published 2026).
Where two headings read alike, the source gives them in different places.

Experiments:
[1] = Cell viability (cytotoxicity) assay, HEK293; type: cell-based, human; settings: human, hek293 cells
Protocol: (§1) As an initial screening of the toxicity, the cell viability of the tobramycin derivatives was assessed in human embryonic kidney (HEK) 293 cell lines. Polymyxin B was utilized as […] and by being a membrane permeabilizing amphiphile resembling the tobramycin derivatives.
(§2) The cytotoxicity assay was conducted as previously described (24, 30). HEK293 cells were cultured in flasks with Dulbecco's Modified Eagle's Medium (DMEM) supplemented with 10% fetal bovine serum. The cells were incubated at 5% CO2 in a humidified atmosphere at 37° C. 50 μL of media containing approximately 8000 cells were added to designated wells in a 96-well plate. The wells containing only media with no cells served as blanks. The plate was incubated for 24 h. A volume of 50 μL of doubled the final desired concentrations of the agent were subsequently added to the experimental and blank wells. After 48 h incubation, PrestoBlue reagent from Invitrogen (United States) was added to a final concentration of 10% (v/v) and plates were incubated for an additional 1 hour at 5% CO2. Fluorescence was measured with excitation and emission wavelengths of 560 and 590 nm, respectively, using the Molecular Devices (United States) SpectraMax M2 plate reader. Values from the blank wells were subtracted from the corresponding wells with cells. The cell viability relative to the controls with vehicle was calculated. The plots indicate the mean±standard deviation of two experiments with five samples each.

[2] = tested on: HEK293 cells; experiment: Cell viability (cytotoxicity) assay, HEK293; type: cell-based, human; settings: for cell viability compared to 1: HEK293, up to 600 μM; for cell viability compared to non-guanidinylated counterpart: HEK293, higher concentrations
Protocol: as §1, §2

[3] = tested on: β-lactamase harboring P. aeruginosa isolates; experiment: MIC against β-lactamase harboring isolates; type: cell-based; settings: Pseudomonas aeruginosa, 18 h
Text: (§3) Since the main resistance mechanism against BL antibiotics is the hydrolysis by β-lactamase enzymes (46), it is imperative that the synergy evaluation is extended to P. aeruginosa strains containing these enzymes. Based on the results of the checkerboard assays against the MDR strains, the synergy of 5 and 8 with ceftazidime and aztreonam was further assessed against β-lactamase harboring P. aeruginosa isolates. These strains are characterized by their increased susceptibility to ceftazidime with the addition of avibactam. In addition, a triple combination therapy consisting of the tobramycin derivative, either BL antibiotic and avibactam was also investigated.
The broth microdilution assay was performed in accordance with standard protocols as previously described (61). An inoculum of the culture was diluted in 0.85% saline solution to attain 0.5 McFarland turbidity. The inoculum was further diluted in Mueller-Hinton broth (MHB) for inoculation to a final concentration of 5×10^5 colony forming units/mL (CFU/mL). The agents were serially diluted two-fold in CA-MHB in a 96-well plate. […] After incubation, Molecular Devices (United States) Emax Plus microplate reader was used to measure the optical density (OD) at a wavelength of 590 nm to confirm the turbidity. The minimum inhibitory concentration (MIC) was determined as the lowest concentration that inhibited visible bacterial growth.

[4] = tested on: PA 86052; experiment: Time-kill kinetics assay, PA 86052; type: cell-based, Pseudomonas aeruginosa
Protocol: (§4) To elucidate the mechanistic killing of the triple combination studies, the time-kill kinetics assay was performed as previously described (32). […] 8 μg/mL of ceftazidime and 2 μg/mL avibactam were used to reflect the clinically used 4:1 ratio.
(§5) Time-kill curve analyses were performed as previously described (32). An inoculum of the culture was then diluted in 0.85% saline solution to attain 0.5 McFarland turbidity. The inoculum was further diluted in lysogeny broth (LB) containing different antibiotic and adjuvant concentrations. The culture tubes were incubated at 37° C., shaking at 250 rpm. At specific time intervals, an aliquot was taken from each tube, serially diluted in sterile phosphate-buffered saline (PBS) and plated on LB agar plates. The plates were incubated at 37° C. overnight and the bacterial colonies were counted the subsequent day. The bactericidal or bacteriostatic activity was determined based on the decrease in CFU over the designated time period. Bactericidal activity corresponded to ≥3 log reduction in CFU/mL, while bacteriostatic activity corresponded to <3 log reduction in CFU/mL.

[5] = tested on: PA 107092; experiment: Time-kill kinetics assay, PA 107092; type: cell-based, Pseudomonas aeruginosa
Protocol: as §4, §5

[6] = tested on: P. aeruginosa PAO1; experiment: Checkerboard synergy with β-lactam antibiotics, PAO1; type: cell-based, Pseudomonas aeruginosa; settings: for active concentration: equivalent to 6 μM
Protocol: After establishing the MIC of the tobramycin derivatives, the ability of these adjuvants to synergize with BL antibiotics was investigated against P. aeruginosa PAO1. The checkerboard assays were conducted as previously described and in accordance with the CLSI guidelines (37). Synergy was defined by at least a 4-fold reduction in the MICs of both adjuvant and antibiotic. The panel of antibiotics are comprised of commonly used antipseudomonal agents and represent the different BL subclasses—cephalosporin (ceftazidime), monobactam (aztreonam), penicillin (piperacillin) and carbapenems (imipenem and meropenem) (12).
(§6) The checkerboard assay was conducted as previously described (61). The bacterial solution was prepared as described in the broth microdilution method. The antibiotic of interest was serially diluted two-fold along the x-axis, and the adjuvant is serially diluted two-fold along the y-axis in a 96-well plate. Equal volumes of bacterial solution were added to the designated wells. The first row and columns are used to verify the MIC of the antibiotic and adjuvant, respectively. The well containing only broth served as negative control, while the well containing the broth and bacterial solution served as positive control. The plate was then incubated at 37° C. for 18 hours. After incubation, Molecular Devices (United States) Emax Plus microplate reader was used to measure the OD at a wavelength of 590 nm. Synergy was determined by at least a 4-fold reduction of the MIC of both agents.

[7] = tested on: MDR clinical isolates of P. aeruginosa; experiment: MIC against MDR clinical isolates; type: cell-based; settings: Pseudomonas aeruginosa, 18 h; all MDR strains tested, alone
Protocol: The synergism of the guanidinylated amphiphilic tobramycin derivatives with ceftazidime, aztreonam and piperacillin against PAO1 prompted further investigation against MDR clinical isolates of P. aeruginosa. Prior to the checkerboard assays, the MICs of 5 and 8 were determined to be >128 μg/mL against all strains tested.
All antibiotics were purchased from commercial sources. Bacterial isolates were obtained from the American Type Culture Collection (ATCC), and from the Canadian National Intensive Care Unit (CAN-ICU) (59) and Canadian Ward (CANWARD) surveillance studies (60). CAN-ICU and CANWARD clinical isolates were collected from patients with presumed infectious diseases admitted in participating Canadian medical centers either to the intensive care unit or medical wards. Prior to microbiological testing, bacterial cultures were grown overnight in lysogeny broth (LB) at 37° C., shaking at 250 rpm.
The broth microdilution assay was performed in accordance with standard protocols as previously described (61). […] After incubation, Molecular Devices (United States) Emax Plus microplate reader was used to measure the optical density (OD) at a wavelength of 590 nm to confirm the turbidity. The minimum inhibitory concentration (MIC) was determined as the lowest concentration that inhibited visible bacterial growth.

[8] = tested on: β-lactamase harboring P. aeruginosa isolates; experiment: Checkerboard dual and triple combinations, β-lactamase harboring isolates; type: cell-based, Pseudomonas aeruginosa; settings: checkerboard assays
Text: as §3
as §6, with “The well containing only broth served as negative control, while the well containing the broth and bacterial solution served as positive control. The plate was then incubated at 37° C. for 18 hours.” left out, “Synergy was determined by at least a 4-fold reduction of the MIC of both agents.” left out

[9] = tested on: P. aeruginosa PAO1; experiment: Potentiation of rifampicin, PAO1; type: cell-based, Pseudomonas aeruginosa
Text: Another evidence of OM permeabilization is the ability of the guanidinylated amphiphilic tobramycin derivatives to synergize with membrane-impermeable antibiotics such as rifampicin. 5 and 8 potentiated rifampicin by 16- and 64-fold, respectively, against PAO1. Rifampicin has limited capacity in crossing the OM of Gram-negative bacteria, and is restricted to treating infections caused by Mycobacteria and Gram-positive cocci (48). Unlike the BL antibiotics that permeate the OM through a porin-mediated uptake, the large molecular weight and hydrophobicity of rifampicin make it unable to enter the narrow porins, and rely on slow passive diffusion to traverse the lipid bilayer (49). Therefore, the augmented potency of rifampicin against P. aeruginosa is linked to its increased intracellular concentration through OM destabilization.
The checkerboard assay was conducted as previously described (61). The bacterial solution was prepared as described in the broth microdilution method. The antibiotic of interest was serially diluted two-fold along the x-axis, and the adjuvant is serially diluted two-fold along the y-axis in a 96-well plate. Equal volumes of bacterial solution were added to the designated wells. […] After incubation, Molecular Devices (United States) Emax Plus microplate reader was used to measure the OD at a wavelength of 590 nm. […]

CCCCCCCCOC1C(OC2OC(CN)C(O)CC2N)C(N)CC(N)C1OC1OC(CO)C(O)C(N)C1O (stereo not shown) [Compound 4, 5-O-(Octyl)-tobramycin]
viability at 48 h, 600 µM ([1]; HEK293, up to 600 μM): 86 to 101% | cell viability compared to 1 [2]: comparable to 1

CC(C)(O/N=C(\C(=O)N[C@@H]1C(=O)N2C(C(=O)[O-])=C(C[n+]3ccccc3)CS[C@H]12)c1csc(N)n1)C(=O)O [ceftazidime, reference compound]
MIC ([3]; all five β-lactamase harboring strains, read-out: MIC of ceftazidime monotherapy): 64 to 128 µg/mL | antibacterial effect over 24 h ([4]; 8 μg/mL ceftazidime, 2 μg/mL avibactam): did not exhibit any antibacterial effect | antibacterial effect over 24 h, monotherapy ([5]; 8 μg/mL ceftazidime): ineffective

N=C(N)NC[C@H]1O[C@H](O[C@H]2[C@H](OCc3ccc(-c4ccccc4)cc3)[C@@H](O[C@H]3O[C@H](CO)[C@@H](O)[C@H](NC(=N)N)[C@H]3O)[C@H](NC(=N)N)C[C@@H]2NC(=N)N)[C@H](NC(=N)N)C[C@@H]1O [Compound 8, 5-O-(4-Methylbiphenyl)-guanidinotobramycin]
active concentration [6]: ~ 8 μg/mL | MIC [7]: > 128 µg/mL | lowest concentration wherein synergy was observed [8]: 8 µg/mL | log reduction in CFU/mL, triple combination ([4]; 8 μg/mL of 8, ceftazidime 8 μg/mL, avibactam 2 μg/mL, within 8 hours): > 3 log | time to bactericidal effect, triple combination ([4]; 8 with ceftazidime/avibactam): ≤ 8 h | log reduction in CFU/mL, triple combination ([5]; 8 μg/mL of 8, ceftazidime 8 μg/mL, avibactam 2 μg/mL, at 4 hours): 3 log | fold potentiation of rifampicin [9]: 64 fold | viability at 48 h, 600 µM ([1]; HEK293, 600 μM): 79.8% | selectivity ratio ([1]; HEK293, active concentration 8 μg/mL, read-out: non-cytotoxic concentration (600 μM, 848.04 μg/mL) as multiple of active concentration): ~106 | cytotoxicity up to approximately 106 times the active concentration ([2]; HEK293): non-cytotoxic | cytotoxicity compared to PMB ([2]; HEK293, 600 μM): reduced cytotoxicity than PMB | cell viability compared to non-guanidinylated counterpart [2]: slight decrease in the cell viability

NCCCCCCCCOC1C(OC2OC(CN)C(O)CC2N)C(N)CC(N)C1OC1OC(CO)C(O)C(N)C1O (stereo not shown) [Compound 6, 5-O-(8-Aminooctyl)-tobramycin]
fold potentiation of ceftazidime ([6]; PAO1, 8 μg/mL of adjuvant): 4 fold | cell viability at 600 μM compared to 4 ([2]; HEK293, 600 μM): lower in comparison to 4

CCCCCCCCOC1C(OC2OC(CNC(=N)N)C(O)CC2NC(=N)N)C(NC(=N)N)CC(NC(=N)N)C1OC1OC(CO)C(O)C(NC(=N)N)C1O (stereo not shown) [Compound 5, 5-O-(Octyl)-guanidinotobramycin]
active concentration [6]: ~ 8 μg/mL | MIC [7]: > 128 µg/mL | fold potentiation of rifampicin [9]: 16 fold | viability at 48 h, 600 µM ([1]; HEK293, 600 μM): 63.8% | cytotoxicity compared to PMB ([2]; HEK293, 600 μM): comparable toxicity

Polymyxin B [PMB, reference compound]
cell viability ([2]; HEK293, 600 μM, 2880 min): 64.7%

COc1cccc2c1C(=O)c1c(O)c3c(c(O)c1C2=O)C[C@@](O)(C(=O)CO)C[C@@H]3O[C@H]1C[C@H](N)[C@H](O)[C@H](C)O1 [Doxorubicin, reference compound]
viability at 48 h, 125 µM ([1]; HEK293, 125 μM): 0%

N=C(N)NC[C@H]1O[C@H](O[C@H]2[C@H](O)[C@@H](O[C@H]3O[C@H](CO)[C@@H](O)[C@H](NC(=N)N)[C@H]3O)[C@H](NC(=N)N)C[C@@H]2NC(=N)N)[C@H](NC(=N)N)C[C@@H]1O [Compound 2, guanidinylated tobramycin, reference compound]
cell viability compared to non-guanidinylated counterpart [2]: slight decrease in the cell viability

C[C@H]1[C@H](NC(=O)/C(=N\OC(C)(C)C(=O)O)c2csc(N)n2)C(=O)N1S(=O)(=O)O [aztreonam]
MIC ([3]; five β-lactamase harboring strains, read-out: MIC of aztreonam monotherapy): 32 to 128 µg/mL

CCCCCCCCCCCCOC1C(OC2OC(CN)C(O)CC2N)C(N)CC(N)C1OC1OC(CO)C(O)C(N)C1O (stereo not shown) [Compound 3]
cytotoxicity ([2]; HEK293, at 600 μM, relative to tobramycin): highly toxic relative to tobramycin, causing cell death at 600 μM

NC[C@H]1O[C@H](O[C@H]2[C@H](OCc3ccc(-c4ccccc4)cc3)[C@@H](O[C@H]3O[C@H](CO)[C@@H](O)[C@H](N)[C@H]3O)[C@H](N)C[C@@H]2N)[C@H](N)C[C@@H]1O [Compound 7, 5-O-(4-Methylbiphenyl)-tobramycin]
viability at 48 h, 600 µM ([1]; HEK293, up to 600 μM): 86 to 101% | cell viability compared to 1 [2]: comparable to 1
